Test results: ChEMBL document CHEMBL1201862, “PubChem BioAssay data set” (2004)
Where “and” joins values, the source holds several entries; their conditions need not be identical. Identical values can stand only once.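 How tested: cells in 96-well plates exposed to compound for 48 hours at five concentrations. GI50 marks 50% less growth.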 Calls of active or inactive are those of the source. Cut-off read from the data, not from the text of the source: active = GI50 up to about 1.1 µM and inactive = higher.

Key:
Experiment in all cases: DTP human tumour cell line panel, 48 h
[1] = tested on: PC-3
[2] = tested on: CCRF-CEM
[3] = tested on: MCF7
[4] = tested on: HCT-116
[5] = tested on: SF-268
[6] = tested on: SF-539
[7] = tested on: U-251
[8] = tested on: TK-10
[9] = tested on: DU-145
[10] = tested on: MDA-N
[11] = tested on: OVCAR-5
[12] = tested on: SW-620
[13] = tested on: ACHN
[14] = tested on: NCI-H23
[15] = tested on: HT-29
[16] = tested on: RPMI-8226
[17] = tested on: Hs-578T
[18] = tested on: M14
[19] = tested on: RXF 393
[20] = tested on: NCI-H226

Row | Structure (SMILES) | GI50 [1] | GI50 [2] | GI50 [3] | GI50 [4] | GI50 [5] | GI50 [6] | GI50 [7] | GI50 [8] | GI50 [9] | GI50 [10] | GI50 [11] | GI50 [12] | GI50 [13] | GI50 [14] | GI50 [15] | GI50 [16] | GI50 [17] | GI50 [18] | GI50 [19] | GI50 [20]
1 | CCOC(=O)C1C(c2ccc(OC)cc2)c2c(nn(-c3ccccc3)c2O)CC1(C)O (stereo not drawn) | 7.5 µM (inactive) | 7.1 µM (inactive) | 33.6 µM (inactive) | 17.9 µM (inactive) | > 100 µM (inactive) | 92.7 µM (inactive) | 53.3 µM (inactive) | 50 µM (inactive) | 38.8 µM (inactive) | 3.21 µM (inactive) | > 100 µM (inactive) | 18.5 µM (inactive) | 23 µM (inactive) | 43.5 µM (inactive) | 28 µM (inactive) | 2.29 µM (inactive) | > 100 µM (inactive) | 11 µM (inactive) |  | 
2 | O=C(/C=C/c1ccc(OCc2ccccc2)c(OCc2ccccc2)c1)OCc1ccccc1 | > 100 µM (inactive) |  | > 100 µM (inactive) | > 100 µM (inactive) | > 100 µM (inactive) | > 100 µM (inactive) | > 100 µM (inactive) | > 100 µM (inactive) | > 100 µM (inactive) | > 100 µM (inactive) | > 100 µM (inactive) | > 100 µM (inactive) | > 100 µM (inactive) | > 100 µM (inactive) | > 100 µM (inactive) | > 100 µM (inactive) |  | > 100 µM (inactive) | > 100 µM (inactive) | > 100 µM (inactive)
3 | COc1ccc2c(c1)OCc1c-2oc2ccccc2c1=O | > 100 µM (inactive) | > 100 µM (inactive) | > 100 µM (inactive) | > 100 µM (inactive) | 69.3 µM (inactive) | 40.1 µM (inactive) | 35.8 µM (inactive) | > 100 µM (inactive) | > 100 µM (inactive) | > 100 µM (inactive) | > 100 µM (inactive) |  | 61.1 µM (inactive) | 0.0895 µM (active) | > 100 µM (inactive) | > 100 µM (inactive) |  | > 100 µM (inactive) |  | > 100 µM (inactive)
4 | COc1ccc(-c2cc(-c3ccc(Nc4ccnc5cc(Cl)ccc45)cc3)[nH]c(=O)c2C#N)cc1 | > 100 µM (inactive) |  | > 100 µM (inactive) | > 100 µM (inactive) | > 100 µM (inactive) | > 100 µM (inactive) | > 100 µM (inactive) | 72.4 µM (inactive) | > 100 µM (inactive) |  | > 100 µM (inactive) | > 100 µM (inactive) | > 100 µM (inactive) | > 100 µM (inactive) |  | > 100 µM (inactive) | > 100 µM (inactive) | > 100 µM (inactive) | > 100 µM (inactive) | > 100 µM (inactive)
5 | Cn1c(Nc2ccccc2)c(/C=N\c2ccccc2)c(=O)n(C)c1=O | > 100 µM (inactive) | > 100 µM (inactive) | > 100 µM (inactive) | 48.2 µM (inactive) | 45.7 µM (inactive) | 94 µM (inactive) | 30 µM (inactive) | > 100 µM (inactive) | > 100 µM (inactive) | > 100 µM (inactive) | > 100 µM (inactive) | > 100 µM (inactive) |  | 82.6 µM (inactive) | 47.9 µM (inactive) | > 100 µM (inactive) |  | > 100 µM (inactive) | 75.9 µM (inactive) | 
6 | Cc1cc(NC(=O)C(=O)Cc2cnc3ccccc3n2)c(S(=O)(=O)O)cc1Cl | > 100 µM (inactive) | > 100 µM (inactive) | > 100 µM (inactive) | > 100 µM (inactive) | > 100 µM (inactive) | > 100 µM (inactive) | > 100 µM (inactive) | > 100 µM (inactive) | > 100 µM (inactive) |  | > 100 µM (inactive) | > 100 µM (inactive) | > 100 µM (inactive) | > 100 µM (inactive) | > 100 µM (inactive) | > 100 µM (inactive) | > 100 µM (inactive) | > 100 µM (inactive) |  | > 100 µM (inactive)
7 | CC1=CCC2CC1NC(=O)CCOCCC(=O)NC2(C)C (stereo not drawn) | > 100 µM (inactive) | > 100 µM (inactive) | > 100 µM (inactive) | > 100 µM (inactive) | > 100 µM (inactive) | > 100 µM (inactive) | > 100 µM (inactive) | > 100 µM (inactive) | > 100 µM (inactive) | > 100 µM (inactive) | > 100 µM (inactive) | > 100 µM (inactive) | > 100 µM (inactive) | > 100 µM (inactive) | > 100 µM (inactive) | > 100 µM (inactive) |  | > 100 µM (inactive) | > 100 µM (inactive) | > 100 µM (inactive)
8 | CCOC(=O)C1=CC(C)(C(=O)OCC)Nc2c(nc(SC)n(C)c2=O)N1 (stereo not drawn) | > 10 µM (inactive) | > 10 µM (inactive) | > 10 µM (inactive) | > 10 µM (inactive) | > 10 µM (inactive) | > 10 µM (inactive) | > 10 µM (inactive) | > 10 µM (inactive) | > 10 µM (inactive) | > 10 µM (inactive) | > 10 µM (inactive) | > 10 µM (inactive) | > 10 µM (inactive) | > 10 µM (inactive) | > 10 µM (inactive) | > 10 µM (inactive) |  | > 10 µM (inactive) |  | > 10 µM (inactive)
9 | O=c1ccn(Cc2ccccc2CCl)c(=O)[nH]1 | 31.8 µM (inactive) | 30.7 µM (inactive) | 23.6 µM (inactive) | 21.7 µM (inactive) | 25.7 µM (inactive) | 24 µM (inactive) | 29.7 µM (inactive) | 39.1 µM (inactive) | 32.4 µM (inactive) |  | 21.5 µM (inactive) | 35.5 µM (inactive) | 26.9 µM (inactive) | 20.4 µM (inactive) | 24.2 µM (inactive) |  | 29.2 µM (inactive) | 26.2 µM (inactive) | 24 µM (inactive) | 
10 | CCCCCCCCCCCCCCCCNc1ccn(C2CC(OP(=O)(O)OCC3OC(n4cc(CC)c(=O)[nH]c4=O)CC3O)C(CO)O2)c(=O)n1 (stereo not drawn) | 18.5 µM (inactive) |  | 32.5 µM (inactive) | 50.1 µM (inactive) | 15.3 µM (inactive) | 18.4 µM (inactive) | 26.8 µM (inactive) | 77.3 µM (inactive) | 31.8 µM (inactive) |  | 23.9 µM (inactive) | 23.8 µM (inactive) | 42.8 µM (inactive) | 34.6 µM (inactive) | 21.6 µM (inactive) | 17.8 µM (inactive) | 22.1 µM (inactive) | 17.8 µM (inactive) | 13.7 µM (inactive) | 47.2 µM (inactive)
11 | CCCCC(=O)Nc1ccc2cc(C(=O)OC)c(=O)[nH]c2n1 | > 100 µM (inactive) | 59.4 µM (inactive) | > 100 µM (inactive) | > 100 µM (inactive) | > 100 µM (inactive) | > 100 µM (inactive) | > 100 µM (inactive) | > 100 µM (inactive) |  | > 100 µM (inactive) | > 100 µM (inactive) | > 100 µM (inactive) | > 100 µM (inactive) | > 100 µM (inactive) |  | > 100 µM (inactive) |  | > 100 µM (inactive) | > 100 µM (inactive) | > 100 µM (inactive)
12 | COc1ccc(-c2nc(SC)n(C3OC(COC(C)=O)C(OC(C)=O)C(OC(C)=O)C3OC(C)=O)c(=O)c2C#N)cc1 (stereo not drawn) | > 100 µM (inactive) | > 100 µM (inactive) | > 100 µM (inactive) | > 100 µM (inactive) and 91.2 µM (inactive) |  |  | 34.7 µM (inactive) and 39.5 µM (inactive) | > 100 µM (inactive) | > 100 µM (inactive) | > 100 µM (inactive) |  | > 100 µM (inactive) |  |  | > 100 µM (inactive) |  | 34.9 µM (inactive) | 58.1 µM (inactive) |  | > 100 µM (inactive)
13 | CNCCN[C@@H]1c2cc3c(cc2[C@@H](c2cc(OC)c(O)c(OC)c2)[C@H]2C(=O)OC[C@@H]21)OCO3 | 0.649 µM (active) | 0.0138 µM (active) | 0.0296 µM (active) | 0.432 µM (active) | 0.258 µM (active) | 0.0678 µM (active) | 0.125 µM (active) | 1.49 µM (inactive) | 0.27 µM (active) | 1.04 µM (active) | 0.966 µM (active) | 0.269 µM (active) | 0.106 µM (active) | 0.185 µM (active) | 0.494 µM (active) | 0.0604 µM (active) |  | 0.394 µM (active) | 0.229 µM (active) | 0.0946 µM (active)
14 | CC1(C)OC[C@@H]([C@@]2(COC(c3ccccc3)(c3ccccc3)c3ccccc3)CC=CC(=O)O2)O1 | 41.3 µM (inactive) | 33.3 µM (inactive) | 21.8 µM (inactive) | 30.3 µM (inactive) | 45.5 µM (inactive) | 37.2 µM (inactive) | 48.9 µM (inactive) | 46.5 µM (inactive) | 56.2 µM (inactive) |  | 42.9 µM (inactive) | 40.1 µM (inactive) | 30.5 µM (inactive) | 42.1 µM (inactive) | 35 µM (inactive) | 23.4 µM (inactive) | 46.9 µM (inactive) | 39.7 µM (inactive) | 24.2 µM (inactive) | 32.7 µM (inactive)
15 | Nc1nc2c(ncn2Cc2ccccc2CO)c(=O)[nH]1 | > 100 µM (inactive) | > 100 µM (inactive) | > 100 µM (inactive) | > 100 µM (inactive) | > 100 µM (inactive) | > 100 µM (inactive) | > 100 µM (inactive) | > 100 µM (inactive) | > 100 µM (inactive) |  | > 100 µM (inactive) | > 100 µM (inactive) | > 100 µM (inactive) | > 100 µM (inactive) | > 100 µM (inactive) | > 100 µM (inactive) | > 100 µM (inactive) | > 100 µM (inactive) |  | > 100 µM (inactive)
